ChEMBL document CHEMBL1201862, “PubChem BioAssay data set” (2004)
Activity calls are given as the source filed them.

Tests used:
[1] = HeLa cell cytotoxicity, dose response, cytotoxicity control for MgcRacGAP inhibitor project (AID 624300); format: functional
[2] = cytotoxicity in HEK-293T cells, dose response, cytotoxicity control for TCR NF-kB inhibitor project, luminescence, T-cell screen hits (AID 489026); format: functional, cell-based;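 note: cells exposed to compound about 14 hours before the viability readout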
[3] = target: T1, Rac GTPase-activating protein 1 (Homo sapiens, UniProt Q9H0H5); test: MgcRacGAP GTPase-activating activity inhibitors, confirmation, biochemical, ADP Hunter fluorescence, primary and confirmatory (AID 624330); format: functional
T1 sequence (Q9H0H5 whole entry): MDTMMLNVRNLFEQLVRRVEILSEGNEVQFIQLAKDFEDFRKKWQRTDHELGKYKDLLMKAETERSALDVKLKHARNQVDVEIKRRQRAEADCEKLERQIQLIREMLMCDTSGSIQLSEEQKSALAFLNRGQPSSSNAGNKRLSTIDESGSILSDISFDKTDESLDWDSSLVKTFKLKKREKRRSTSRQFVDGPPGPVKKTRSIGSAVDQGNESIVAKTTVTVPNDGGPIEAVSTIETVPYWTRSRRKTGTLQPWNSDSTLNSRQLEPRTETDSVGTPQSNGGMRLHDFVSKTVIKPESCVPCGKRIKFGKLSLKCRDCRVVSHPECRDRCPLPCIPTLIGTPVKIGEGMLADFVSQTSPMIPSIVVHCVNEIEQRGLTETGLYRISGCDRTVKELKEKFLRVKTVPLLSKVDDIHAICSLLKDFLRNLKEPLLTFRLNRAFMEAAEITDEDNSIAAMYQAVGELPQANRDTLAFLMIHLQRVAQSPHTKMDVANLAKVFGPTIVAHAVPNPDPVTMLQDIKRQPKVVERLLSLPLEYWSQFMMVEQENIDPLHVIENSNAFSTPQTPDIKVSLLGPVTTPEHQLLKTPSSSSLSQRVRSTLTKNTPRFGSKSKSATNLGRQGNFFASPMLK

[4] = Luminescence Cell-Based Dose Response HTS to Identify Activators of Luciferase Translation or Activity in H4 […] Cells. [Related pubchem assays: 1829 (Project Summary), 1814 (Primary HTS)]; format: functional
[5] = test system: HEK293; test: cells; details: Homo sapiens
[6] = test system: H4; test: Luminescence Cell-Based Dose Response HTS to Identify Activators of 5'UTR Stem-Loop Driven Prion Protein mRNA Translation in H4 Neuroglioblastoma Cells. [Related pubchem assays: 1829 (Project Summary), 1814 (Primary HTS)]; format: functional; details: Homo sapiens
[7] = test system: Vero; test: cells; format: functional; details: Chlorocebus sabaeus
[8] = Luminescence Cell-Based Dose Confirmation HTS to Identify Activators of 5'UTR Stem-Loop Driven Alpha-Synuclein mRNA Translation in H4 Neuroglioblastoma Cells. [Related pubchem assays: 1829 (Project Summary), 1814 (Primary HTS)]; format: functional
[9] = target: Dual specificity tyrosine-phosphorylation-regulated kinase 1A (Rattus norvegicus, UniProt Q63470); format: biochemical, Homo sapiens
[10] = target: DNA damage-inducible transcript 3 protein (Mus musculus, UniProt P35639); format: functional, Cricetulus griseus
DNA damage-inducible transcript 3 protein, sequence (P35639 whole entry): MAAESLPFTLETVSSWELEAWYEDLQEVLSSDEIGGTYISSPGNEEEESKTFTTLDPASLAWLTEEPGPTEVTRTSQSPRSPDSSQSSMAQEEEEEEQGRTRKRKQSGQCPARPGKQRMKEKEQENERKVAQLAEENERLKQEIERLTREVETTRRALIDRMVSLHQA

[11] = test system: HEK293; test: cells; details: Homo sapiens; remark: listed apart in the source
[12] = target: X-box-binding protein 1 (Homo sapiens, UniProt P17861); format: functional, Cricetulus griseus;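 note: confirmatory dose-response counter-screen serving a CHOP assay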
X-box-binding protein 1, sequence (P17861 whole entry): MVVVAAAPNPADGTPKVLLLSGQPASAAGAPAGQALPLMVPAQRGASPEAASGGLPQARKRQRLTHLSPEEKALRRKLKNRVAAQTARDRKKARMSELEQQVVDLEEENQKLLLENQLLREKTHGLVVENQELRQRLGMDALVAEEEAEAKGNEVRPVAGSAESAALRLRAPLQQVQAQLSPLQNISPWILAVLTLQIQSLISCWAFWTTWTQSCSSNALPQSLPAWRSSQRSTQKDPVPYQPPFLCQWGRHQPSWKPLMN

[13] = test system: HEK293; test: NOD1 signaling inhibitors, primary screen, cell-based, luminescence, uHTS (AID 1578); format: functional; details: Homo sapiens
[14] = target: Nucleotide-binding oligomerization domain-containing protein 2 (Homo sapiens, UniProt Q9HC29); test: NOD2 signaling inhibitors, cell-based, luminescence, uHTS, HEK293 (AID 1566); format: functional
Nucleotide-binding oligomerization domain-containing protein 2, sequence (Q9HC29 whole entry, the tested form may be a part): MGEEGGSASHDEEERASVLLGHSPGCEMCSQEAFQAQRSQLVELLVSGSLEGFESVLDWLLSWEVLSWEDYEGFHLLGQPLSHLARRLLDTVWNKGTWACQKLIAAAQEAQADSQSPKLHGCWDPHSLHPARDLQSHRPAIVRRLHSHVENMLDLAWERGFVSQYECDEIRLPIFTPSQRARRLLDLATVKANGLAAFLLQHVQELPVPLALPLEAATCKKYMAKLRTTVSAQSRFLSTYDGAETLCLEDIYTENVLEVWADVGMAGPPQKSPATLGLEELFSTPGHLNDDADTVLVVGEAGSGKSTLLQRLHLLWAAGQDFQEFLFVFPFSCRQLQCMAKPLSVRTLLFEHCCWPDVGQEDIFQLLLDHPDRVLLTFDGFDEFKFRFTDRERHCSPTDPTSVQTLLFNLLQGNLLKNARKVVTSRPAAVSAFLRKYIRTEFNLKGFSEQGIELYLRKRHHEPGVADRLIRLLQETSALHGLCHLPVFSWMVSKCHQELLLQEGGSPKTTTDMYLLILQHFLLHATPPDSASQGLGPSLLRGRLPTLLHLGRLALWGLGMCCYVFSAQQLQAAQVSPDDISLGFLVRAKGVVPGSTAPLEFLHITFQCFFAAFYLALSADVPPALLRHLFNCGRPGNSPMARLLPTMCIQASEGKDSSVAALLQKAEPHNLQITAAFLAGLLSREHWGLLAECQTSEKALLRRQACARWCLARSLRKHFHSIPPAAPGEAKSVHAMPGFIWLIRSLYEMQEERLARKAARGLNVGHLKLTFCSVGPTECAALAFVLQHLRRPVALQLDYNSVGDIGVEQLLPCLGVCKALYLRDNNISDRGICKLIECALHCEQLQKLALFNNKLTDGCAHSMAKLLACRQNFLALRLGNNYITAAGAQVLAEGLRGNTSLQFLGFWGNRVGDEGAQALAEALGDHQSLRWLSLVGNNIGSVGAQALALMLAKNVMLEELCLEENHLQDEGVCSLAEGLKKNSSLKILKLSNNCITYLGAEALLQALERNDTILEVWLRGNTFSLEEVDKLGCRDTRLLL

[15] = test system: HEK293; test: cells; format: functional, cell-based; details: Homo sapiens
[16] = test system: HEK293; test: NOD2 signaling inhibitors in MDP-stimulated cells, cell-based, uHTS, luminescence (AID 2001); format: functional; details: Homo sapiens
[17] = test system: HEK293; test: cells; format: functional, cell-based; details: Homo sapiens; remark: listed apart in the source
[18] = test system: HEK293; test: cells; format: functional, cell-based; details: Homo sapiens; remark: listed apart in the source
[19] = target: T2, Heat shock factor protein 1 (Mus musculus, UniProt P38532); test: HSF1 potentiators in luciferase reporter cells, confirmation, cell-based, NIH3T3, luminescence, dose retest (AID 435004); format: functional;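 note: stress induced by proteasome inhibitor MG132 added 30 min after compound; luciferase reporter driven by HSF1 response element in NIH3T3 cells; actives raise luminescence as potentiators of the MG132 stress response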
T2 sequence (P38532 whole entry): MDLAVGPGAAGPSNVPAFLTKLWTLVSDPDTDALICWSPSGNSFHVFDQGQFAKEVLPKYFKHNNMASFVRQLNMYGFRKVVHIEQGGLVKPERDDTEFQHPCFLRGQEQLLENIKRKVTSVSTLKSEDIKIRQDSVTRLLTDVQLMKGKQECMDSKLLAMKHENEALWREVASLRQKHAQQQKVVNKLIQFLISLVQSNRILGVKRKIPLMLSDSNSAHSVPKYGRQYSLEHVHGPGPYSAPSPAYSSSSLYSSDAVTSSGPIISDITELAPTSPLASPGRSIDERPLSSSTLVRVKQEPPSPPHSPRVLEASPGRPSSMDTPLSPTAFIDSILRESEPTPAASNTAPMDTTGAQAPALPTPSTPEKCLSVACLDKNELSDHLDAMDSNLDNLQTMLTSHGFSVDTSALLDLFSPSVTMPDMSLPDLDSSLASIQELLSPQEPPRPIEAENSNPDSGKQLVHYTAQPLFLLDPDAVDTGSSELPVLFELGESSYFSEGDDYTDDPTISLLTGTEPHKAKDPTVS

[20] = cells
[21] = inhibitors of intracellular T. cruzi replication, confirmation, NIH3T3 host cells, beta-gal luminescence (AID 2044); format: functional, cell-based;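 note: intracellular parasites grown in NIH/3T3 mouse fibroblasts as host cells; luminescent beta-galactosidase reporter signal from transgenic T. cruzi replicating inside host cells; inhibitors lower the luminescence signal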
[22] = cytotoxicity toward NIH3T3 fibroblasts, dose response, counter-screen, cell-based, ATP luminescence, mouse fibroblasts (AID 2010); format: functional;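 note: cells exposed to compound for about 90 hours before reading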
[23] = target: T3, Microphthalmia-associated transcription factor (Homo sapiens, UniProt O75030); test: TRPM1 promoter luciferase signal decrease, dose response, MITF inhibitor project, cell-based, SK-MEL-5, cherry-picked, set 3 (AID 493073); format: functional
T3 sequence (O75030 whole entry): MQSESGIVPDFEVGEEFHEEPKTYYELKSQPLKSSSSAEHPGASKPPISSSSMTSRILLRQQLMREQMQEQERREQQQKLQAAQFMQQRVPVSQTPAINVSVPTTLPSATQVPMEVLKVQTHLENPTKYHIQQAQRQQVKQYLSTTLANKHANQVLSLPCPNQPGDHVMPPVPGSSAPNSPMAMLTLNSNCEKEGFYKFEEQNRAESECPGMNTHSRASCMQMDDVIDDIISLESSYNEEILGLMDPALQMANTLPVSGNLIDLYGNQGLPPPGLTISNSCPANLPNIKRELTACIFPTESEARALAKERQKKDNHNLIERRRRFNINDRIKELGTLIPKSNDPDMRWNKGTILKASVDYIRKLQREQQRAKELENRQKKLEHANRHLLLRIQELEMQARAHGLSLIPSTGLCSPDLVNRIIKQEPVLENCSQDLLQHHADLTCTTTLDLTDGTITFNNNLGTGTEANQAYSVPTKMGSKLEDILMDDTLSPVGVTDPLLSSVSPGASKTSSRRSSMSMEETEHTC

[24] = test system: A-375; test: A375 melanoma cell viability reduction, dose response, counter-screen for MITF modulator project, cherry-pick samples, set 2 (AID 540335); format: functional, cell-based; details: Homo sapiens
[25] = test system: HeLa; test: HeLa cell cytotoxicity, dose response, cytotoxicity control for MITF activator project, CellTiter-Glo luminescence, cherry-pick samples (AID 540259); format: functional, cell-based; details: Homo sapiens
[26] = target: Cytochrome P450 2D6 (Homo sapiens, UniProt P10635);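 note: CYP2D6 member of a cytochrome P450 panel assay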
Cytochrome P450 2D6, sequence (P10635 whole entry): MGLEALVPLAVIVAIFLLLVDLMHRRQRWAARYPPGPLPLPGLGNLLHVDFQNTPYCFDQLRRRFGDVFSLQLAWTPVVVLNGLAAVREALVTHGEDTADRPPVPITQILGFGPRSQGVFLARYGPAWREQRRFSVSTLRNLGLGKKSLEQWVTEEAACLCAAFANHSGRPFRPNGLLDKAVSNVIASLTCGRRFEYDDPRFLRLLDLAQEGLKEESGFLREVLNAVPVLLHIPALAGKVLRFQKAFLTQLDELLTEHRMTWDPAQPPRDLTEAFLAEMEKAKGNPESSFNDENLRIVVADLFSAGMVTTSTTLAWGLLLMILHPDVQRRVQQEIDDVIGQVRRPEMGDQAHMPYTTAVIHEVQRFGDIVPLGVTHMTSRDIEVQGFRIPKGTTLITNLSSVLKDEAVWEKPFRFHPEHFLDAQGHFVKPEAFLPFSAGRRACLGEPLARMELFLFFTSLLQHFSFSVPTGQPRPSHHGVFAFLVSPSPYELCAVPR

[27] = target: Cytochrome P450 2C9 (Homo sapiens, UniProt P11712)
Cytochrome P450 2C9, sequence (P11712 whole entry): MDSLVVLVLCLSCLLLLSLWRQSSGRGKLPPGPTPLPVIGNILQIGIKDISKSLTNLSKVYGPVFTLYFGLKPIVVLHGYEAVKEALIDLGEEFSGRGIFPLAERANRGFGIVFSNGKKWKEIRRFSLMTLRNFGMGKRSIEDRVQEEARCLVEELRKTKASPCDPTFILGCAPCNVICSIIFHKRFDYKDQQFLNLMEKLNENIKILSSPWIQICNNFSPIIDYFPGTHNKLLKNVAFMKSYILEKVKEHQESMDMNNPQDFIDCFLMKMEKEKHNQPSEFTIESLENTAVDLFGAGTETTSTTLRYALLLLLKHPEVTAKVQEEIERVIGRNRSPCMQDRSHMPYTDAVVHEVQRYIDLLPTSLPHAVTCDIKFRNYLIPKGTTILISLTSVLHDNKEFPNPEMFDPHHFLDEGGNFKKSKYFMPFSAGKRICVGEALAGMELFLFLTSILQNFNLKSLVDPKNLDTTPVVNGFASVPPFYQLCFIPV

[28] = target: T4, Cytochrome P450 3A4 (Homo sapiens, UniProt P08684);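 note: CYP3A4 tested as one member of a cytochrome P450 panel screen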
T4 sequence (P08684 whole entry): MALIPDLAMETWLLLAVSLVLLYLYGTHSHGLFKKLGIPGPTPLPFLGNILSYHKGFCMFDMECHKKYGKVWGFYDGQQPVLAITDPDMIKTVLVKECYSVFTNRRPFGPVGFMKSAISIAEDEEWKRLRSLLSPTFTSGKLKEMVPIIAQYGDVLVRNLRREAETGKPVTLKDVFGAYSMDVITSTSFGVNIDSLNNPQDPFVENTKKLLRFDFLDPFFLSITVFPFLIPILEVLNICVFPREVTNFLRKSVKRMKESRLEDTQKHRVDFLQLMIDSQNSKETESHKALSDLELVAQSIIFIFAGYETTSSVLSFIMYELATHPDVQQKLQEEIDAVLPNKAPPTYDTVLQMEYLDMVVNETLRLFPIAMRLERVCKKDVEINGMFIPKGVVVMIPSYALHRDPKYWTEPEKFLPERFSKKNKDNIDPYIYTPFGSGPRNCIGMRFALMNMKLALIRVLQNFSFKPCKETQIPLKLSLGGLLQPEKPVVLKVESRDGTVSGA

[29] = target: Cytochrome P450 2C19 (Homo sapiens, UniProt P33261); test: Cytochrome panel assay with activity outcomes. Panel member name: p450-cyp2c19 Compounds with AC50 equal or less than 10 uM are considered active; format: functional
Cytochrome P450 2C19, sequence (P33261 whole entry): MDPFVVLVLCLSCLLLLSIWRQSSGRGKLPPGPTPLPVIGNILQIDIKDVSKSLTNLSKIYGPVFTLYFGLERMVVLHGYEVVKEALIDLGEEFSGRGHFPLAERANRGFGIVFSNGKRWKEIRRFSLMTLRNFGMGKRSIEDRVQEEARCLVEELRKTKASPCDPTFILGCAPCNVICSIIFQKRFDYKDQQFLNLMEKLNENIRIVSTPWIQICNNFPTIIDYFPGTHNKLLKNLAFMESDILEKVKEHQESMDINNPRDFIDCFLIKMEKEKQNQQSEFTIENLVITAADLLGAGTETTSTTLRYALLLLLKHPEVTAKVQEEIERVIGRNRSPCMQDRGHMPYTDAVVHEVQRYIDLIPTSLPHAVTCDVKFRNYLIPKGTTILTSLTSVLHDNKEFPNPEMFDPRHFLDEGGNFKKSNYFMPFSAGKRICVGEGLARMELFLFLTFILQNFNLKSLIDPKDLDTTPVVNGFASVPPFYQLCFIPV

[30] = target: Dual specificity protein kinase CLK1 (Homo sapiens, UniProt P49759); test: CLK1 kinase inhibitors, off-target check, dose response, selectivity assay for Dyrk1A inhibitor project, biochemical, cherry-picked samples (AID 588811)
Dual specificity protein kinase CLK1, sequence (P49759 whole entry): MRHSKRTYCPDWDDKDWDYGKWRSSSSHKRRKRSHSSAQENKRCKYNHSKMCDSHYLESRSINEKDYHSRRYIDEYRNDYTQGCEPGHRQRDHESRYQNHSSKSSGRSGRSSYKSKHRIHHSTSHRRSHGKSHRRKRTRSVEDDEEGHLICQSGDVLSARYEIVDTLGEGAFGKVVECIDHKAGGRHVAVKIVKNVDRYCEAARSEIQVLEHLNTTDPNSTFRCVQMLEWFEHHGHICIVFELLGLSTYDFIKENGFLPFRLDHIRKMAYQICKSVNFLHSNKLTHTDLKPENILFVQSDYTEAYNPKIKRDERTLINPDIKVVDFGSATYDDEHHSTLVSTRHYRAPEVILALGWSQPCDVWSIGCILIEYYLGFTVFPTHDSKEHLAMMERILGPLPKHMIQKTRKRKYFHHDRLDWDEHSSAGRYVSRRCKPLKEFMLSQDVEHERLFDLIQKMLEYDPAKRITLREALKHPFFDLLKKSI

[31] = target: T4, Cytochrome P450 3A4; remark: listed apart in the source
[32] = target: Alkaline phosphatase, placental type (Homo sapiens, UniProt P05187); test: PLAP enzyme inhibitors, confirmation, biochemical, luminescence (AID 1512); format: functional
Alkaline phosphatase, placental type, sequence (P05187 whole entry): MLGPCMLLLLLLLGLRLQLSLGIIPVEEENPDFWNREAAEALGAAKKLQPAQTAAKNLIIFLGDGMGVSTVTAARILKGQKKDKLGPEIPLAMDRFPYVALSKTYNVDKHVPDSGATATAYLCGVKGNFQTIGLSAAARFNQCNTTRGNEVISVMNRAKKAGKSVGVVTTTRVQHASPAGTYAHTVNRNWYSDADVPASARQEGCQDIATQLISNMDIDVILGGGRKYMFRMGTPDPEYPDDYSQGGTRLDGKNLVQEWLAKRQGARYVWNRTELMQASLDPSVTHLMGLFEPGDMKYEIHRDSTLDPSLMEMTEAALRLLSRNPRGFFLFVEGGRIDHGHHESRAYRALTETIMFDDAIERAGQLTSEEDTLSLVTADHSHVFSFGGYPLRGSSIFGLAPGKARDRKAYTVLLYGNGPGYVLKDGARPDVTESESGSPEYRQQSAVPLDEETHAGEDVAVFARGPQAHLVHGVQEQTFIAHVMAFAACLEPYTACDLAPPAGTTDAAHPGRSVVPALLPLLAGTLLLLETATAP

[33] = target: Glyceraldehyde-3-phosphate dehydrogenase (Homo sapiens, UniProt P04406)
Glyceraldehyde-3-phosphate dehydrogenase, sequence (P04406 whole entry): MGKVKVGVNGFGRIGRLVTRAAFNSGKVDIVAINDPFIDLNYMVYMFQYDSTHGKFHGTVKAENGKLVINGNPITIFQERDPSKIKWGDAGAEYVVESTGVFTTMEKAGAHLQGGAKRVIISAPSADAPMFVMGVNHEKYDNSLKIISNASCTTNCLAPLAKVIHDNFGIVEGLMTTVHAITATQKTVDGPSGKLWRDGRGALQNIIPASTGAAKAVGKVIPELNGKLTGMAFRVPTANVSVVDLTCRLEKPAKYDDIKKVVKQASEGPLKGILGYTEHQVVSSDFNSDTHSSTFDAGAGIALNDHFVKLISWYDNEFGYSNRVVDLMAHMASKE

[34] = target: T5, Alkaline phosphatase, tissue-nonspecific isozyme (Homo sapiens, UniProt P05186); test: human TNAP enzyme inhibitors, SAR follow-up, biochemical, luminescent, dose response (AID 1056)
T5 sequence (P05186 whole entry): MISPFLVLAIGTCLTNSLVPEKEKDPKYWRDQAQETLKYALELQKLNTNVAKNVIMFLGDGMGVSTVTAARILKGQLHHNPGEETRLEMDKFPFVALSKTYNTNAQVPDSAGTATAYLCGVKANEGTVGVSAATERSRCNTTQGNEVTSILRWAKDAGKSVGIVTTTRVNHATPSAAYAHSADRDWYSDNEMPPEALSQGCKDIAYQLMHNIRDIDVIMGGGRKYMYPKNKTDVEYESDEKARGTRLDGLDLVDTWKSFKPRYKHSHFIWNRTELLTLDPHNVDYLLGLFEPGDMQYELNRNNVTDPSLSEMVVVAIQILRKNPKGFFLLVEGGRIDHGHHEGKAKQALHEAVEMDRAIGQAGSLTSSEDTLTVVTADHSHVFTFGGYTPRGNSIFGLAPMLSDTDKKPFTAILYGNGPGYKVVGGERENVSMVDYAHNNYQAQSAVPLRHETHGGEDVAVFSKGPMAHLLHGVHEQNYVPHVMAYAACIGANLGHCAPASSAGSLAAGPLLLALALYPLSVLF

Compound: COc1cc(/C=C2/SC(Nc3ccc(O)cc3)=NC2=O)ccc1O
- CC50 [1]: 61.1 µM (active)
- IC50 [2]: 42.7 µM (inactive)
- IC50 [3]: 20 µM (active)

Compound: COc1ccc(/C=C(/C(=O)c2cccs2)N2C=CC=CC2=C(C#N)C#N)cc1
- EC50 [4]: > 120 µM (not active)
- EC50 [5]: > 59.6 µM (inactive)
- EC50 [6]: > 120 µM (not active)
- CC50 [7]: > 25 µM (active)
- EC50 [8]: > 120 µM (not active)
- AC50 [9]: 8.18 µM (active)
- Absolute IC50 (CHOP) [10]: 10 µM
- EC50 [11]: > 59.6 µM (inactive)
- Absolute IC50 (XBP1) [12]: 10 µM

Compound: CCc1ccc(CN(C)C(=O)CCc2nc3ccccc3n(-c3ccc(OC)cc3)c2=O)cc1
- EC50 [13]: 12.7 µM (active)
- EC50 [14]: 16 µM (active)
- IC50 [15]: > 20 µM (inactive)
- IC50 [16]: 5.96 µM (active)
- IC50 [17]: > 20 µM (inactive)
- IC50 [18]: > 20 µM (inactive)
- EC50 [19]: > 260 µM (inactive)

Compound: CN(Cc1ccccc1)C1=CC(=[N+]2CCCCC2)CC(C)(C)C1
- EC50 [20]: 0.032 µM (active)
- IC50 [2]: > 80 µM (inactive)
- EC50 [21]: < 0.1 µM (active)
- EC50 [22]: > 60 µM (not active)
- AC50 [23]: 2.46 µM (active)
- AC50 [24]: 84.3 µM (active)

Compound: COc1ccc(C(=O)c2c[nH]c3ccccc23)cc1
- AC50 [25]: 41.9 µM (active)

Compound: CCCCNC(=O)c1cc2nc3c(c(C(F)(F)F)n2n1)CCc1ccccc1-3
- AC50 [26]: inconclusive
- AC50 [27]: 0.398 µM (inconclusive)
- AC50 [28]: 7.94 µM (inconclusive)
- AC50 ([29]; read-out: AC50): 15.8 µM (inconclusive)

Compound: Cc1nc(NC(=O)c2ccccc2)sc1-c1csc(N)n1
- AC50 [30]: 1.35 µM (active)
- AC50 [9]: 1.26 µM (active)

Compound: COc1cccc(NC(=O)CSc2nc3c(c(-c4ccco4)c2C#N)CCCC3)c1
- AC50 [26]: inconclusive
- AC50 [29]: inconclusive
- AC50 [31]: inconclusive

Compound: COc1ccc(Cc2nc(N)nn2-c2ccccc2)cc1
- IC50 [32]: > 100 µM (inactive)
- IC50 [33]: > 100 µM (not active)
- IC50 [34]: > 100 µM (inactive)

Compound: O=c1c2ccccc2oc2c1ccc1ccccc12
- AC50 [25]: 32.3 µM (active)

Compound: Cc1cc(C)nc(SCC(=O)c2ccc3c(c2)OCO3)n1
- IC50 [32]: > 100 µM (inactive)
- IC50 [34]: > 100 µM (inactive)

Compound: COc1ccccc1-c1ccc2c(c1)C(C)(Cc1ccc(F)c(Cl)c1)C(=O)N2 (centres undefined)
- EC50 [5]: > 59.6 µM (inactive)
- EC50 [11]: > 59.6 µM (inactive)

Compound: COc1ccc(-c2nccc(NCc3ccc(C)cc3)n2)cc1
- AC50 [30]: 0.00697 µM (active)
